From ChEMBL document CHEMBL1201862, “PubChem BioAssay data set” (2004)
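How tested: cells in 96-well plates exposed to compound for 48 hours at five concentrations. GI50 marks 50% less growth.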 The source made the active and inactive calls. Rule as the data show it: active = GI50 up to about 1.1 µM and inactive = higher.

How the values were obtained:
Test in all cases: inhibition of tumour cell growth, NCI panel, 48 h
SK-OV-3 = test system: SK-OV-3
UACC-62 = test system: UACC-62
SN12C = test system: SN12C
CAKI-1 = test system: CAKI-1
UACC-257 = test system: UACC-257
HL-60 = test system: HL-60
CCRF-CEM = test system: CCRF-CEM
SF-268 = test system: SF-268
U-251 = test system: U-251
TK-10 = test system: TK-10
SW-620 = test system: SW-620
786-0 = test system: 786-0
SK-MEL-28 = test system: SK-MEL-28
SF-295 = test system: SF-295
RPMI-8226 = test system: RPMI-8226
M14 = test system: M14
MDA-MB-231 = test system: MDA-MB-231
MCF7 = test system: MCF7
MDA-N = test system: MDA-N

Measured: GI50

N#C/C(=C/c1cccnc1)C(=O)c1ccccc1
inactive: SK-OV-3 > 100 µM | UACC-62 > 100 µM | SN12C > 100 µM | CAKI-1 > 100 µM | UACC-257 > 100 µM | HL-60 > 100 µM | CCRF-CEM > 100 µM | SF-268 > 100 µM | U-251 > 100 µM | TK-10 > 100 µM | SW-620 > 100 µM | 786-0 > 100 µM | SK-MEL-28 > 100 µM | SF-295 > 100 µM | RPMI-8226 > 100 µM | M14 > 100 µM

COc1cc2c(c3c1c(=O)c1ccccc1n3C)C=CC(C)(C)O2 [ACRONINE]
inactive: SK-OV-3 > 100 µM | UACC-62 96.2 µM | SN12C > 100 µM | CAKI-1 > 100 µM | UACC-257 > 100 µM | HL-60 60.7 µM | CCRF-CEM 79.1 µM | SF-268 > 100 µM | U-251 > 100 µM | TK-10 > 100 µM | SW-620 > 100 µM | 786-0 71 µM | SK-MEL-28 48.6 µM | SF-295 32.3 µM | RPMI-8226 27.9 µM | M14 > 100 µM

COc1cc(/C=C/c2ccc(OC)c(OC)c2OC)cc(OC)c1OC
inactive: SK-OV-3 24.7 µM | UACC-62 13.4 µM | SN12C 21.4 µM | CAKI-1 25.1 µM | UACC-257 20.9 µM | HL-60 23.1 µM | CCRF-CEM 22.4 µM | SF-268 20.1 µM | U-251 16.8 µM | TK-10 28.2 µM | SW-620 29.3 µM | 786-0 21.8 µM | SK-MEL-28 15.3 µM | SF-295 20.8 µM | RPMI-8226 14.1 µM | M14 25.4 µM

Cc1cc2c(c3nocc13)C(=O)c1ccccc1C2=O
inactive: SK-OV-3 > 100 µM | UACC-62 > 100 µM | SN12C > 100 µM | CAKI-1 > 100 µM | UACC-257 > 100 µM | HL-60 98.2 µM | CCRF-CEM > 100 µM | SF-268 > 100 µM | U-251 > 100 µM | TK-10 > 100 µM | SW-620 > 100 µM | 786-0 > 100 µM | SK-MEL-28 > 100 µM | SF-295 > 100 µM | RPMI-8226 > 100 µM | M14 > 100 µM

O=[N+]([O-])c1ccc(OCc2nnc(CCCCCCCCc3nnc(COc4ccc([N+](=O)[O-])cc4)o3)o2)cc1
inactive: SK-OV-3 40.6 µM | UACC-62 > 100 µM | SN12C > 100 µM | UACC-257 > 100 µM | SF-268 44.5 µM | MDA-MB-231 32.7 µM | U-251 95.9 µM | TK-10 > 100 µM | SW-620 > 100 µM | 786-0 > 100 µM | SK-MEL-28 > 100 µM | SF-295 > 100 µM | RPMI-8226 > 100 µM | MCF7 > 100 µM | M14 > 100 µM

COc1ccc(C2CC(c3cc(C)ccc3O)=NC(N)=N2)cc1 (stereo not given)
inactive: SK-OV-3 > 100 µM | UACC-62 > 100 µM | SN12C > 100 µM | CAKI-1 > 100 µM | UACC-257 > 100 µM | HL-60 > 100 µM | CCRF-CEM > 100 µM | SF-268 > 100 µM | U-251 > 100 µM | TK-10 > 100 µM | SW-620 > 100 µM | 786-0 > 100 µM | SK-MEL-28 > 100 µM | SF-295 > 100 µM | RPMI-8226 > 100 µM | M14 > 100 µM

CC(C)C/C(CC(=O)CCC(=O)Nc1ccccc1[N+](=O)[O-])=N\NC(=O)c1cc2ccccc2cc1O
inactive: SK-OV-3 79.6 µM | UACC-62 25.7 µM | SN12C 50.6 µM | CAKI-1 68.2 µM | UACC-257 37 µM | HL-60 23.2 µM | CCRF-CEM 9.14 µM | SF-268 38 µM | U-251 39.2 µM | TK-10 51.2 µM | SW-620 41.4 µM | 786-0 36.8 µM | SK-MEL-28 > 100 µM | SF-295 43.5 µM | RPMI-8226 50 µM | M14 26.6 µM

CC1CSc2nc3nc(S)nc-3c(O)n2C1 (stereo not given)
inactive: SK-OV-3 > 100 µM | UACC-62 > 100 µM | SN12C > 100 µM | CAKI-1 > 100 µM | UACC-257 > 100 µM | HL-60 > 100 µM | CCRF-CEM > 100 µM | SF-268 > 100 µM | MDA-MB-231 > 100 µM | U-251 > 100 µM | TK-10 > 100 µM | SW-620 > 100 µM | 786-0 > 100 µM | SK-MEL-28 > 100 µM | SF-295 > 100 µM | RPMI-8226 > 100 µM | MCF7 > 100 µM

COc1ccc(-c2nnc(CCCCCCCCc3nnc(-c4ccc(OC)cc4)o3)o2)cc1
inactive: SK-OV-3 54.2 µM | MDA-N > 100 µM | SN12C > 100 µM | CAKI-1 > 100 µM | UACC-257 > 100 µM | HL-60 > 100 µM | CCRF-CEM > 100 µM | SF-268 > 100 µM | MDA-MB-231 18.3 µM | U-251 27.6 µM | TK-10 65.2 µM | SW-620 > 100 µM | 786-0 57.4 µM | SK-MEL-28 > 100 µM | SF-295 50.4 µM | MCF7 > 100 µM | M14 > 100 µM

CCOC(=O)C1C(c2ccc([N+](=O)[O-])cc2)NC(c2ccc([N+](=O)[O-])cc2)C(C(=O)OC)S1(=O)=O (stereo not given)
inactive: SK-OV-3 > 100 µM | UACC-62 > 100 µM | SN12C > 100 µM | CAKI-1 > 100 µM | UACC-257 > 100 µM | HL-60 > 100 µM | CCRF-CEM > 100 µM | SF-268 > 100 µM | U-251 > 100 µM | TK-10 > 100 µM | SW-620 > 100 µM | 786-0 > 100 µM | SK-MEL-28 > 100 µM | SF-295 > 100 µM | RPMI-8226 > 100 µM | M14 > 100 µM

CC1(C)CCC[C@]2(C)[C@@H]1CC[C@@]13O[C@@H]1C1=C(CO)C(=O)O[C@]14O[C@@H]4[C@@H]23
inactive: SK-OV-3 16.7 µM | MDA-N 5.78 µM | UACC-62 10.9 µM | SN12C 5.9 µM | CAKI-1 12.8 µM | UACC-257 14 µM | SF-268 15 µM | MDA-MB-231 15.7 µM | U-251 13.8 µM | TK-10 17.6 µM | SW-620 12.8 µM | 786-0 15.2 µM | SK-MEL-28 15.6 µM | SF-295 16.1 µM | RPMI-8226 > 100 µM | MCF7 15.3 µM | M14 10.8 µM

CC(C)=CCC(O)[C@](C)(O)[C@H]1[C@H](O)C[C@@]2(C)[C@@H]3CCc4cc(O)c(OC5OC(CO)C(O)C(O)C5O)cc4C3(C)C(=O)C[C@]12C (stereo not given in full)
inactive: SK-OV-3 > 100 µM | MDA-N > 100 µM | UACC-62 > 100 µM | SN12C > 100 µM | CAKI-1 > 100 µM | UACC-257 > 100 µM | CCRF-CEM > 100 µM | SF-268 > 100 µM | MDA-MB-231 > 100 µM | U-251 > 100 µM | TK-10 > 100 µM | SW-620 > 100 µM | 786-0 > 100 µM | SK-MEL-28 > 100 µM | SF-295 > 100 µM | MCF7 > 100 µM | M14 > 100 µM
